test system: ASPC1; assay: Cytotoxicity against human Aspc-1 cells incubated for 72 hrs by MTT assay; format: functional, cell-based; conditions: ASPC1, 72 h

SMILES | IC50 [nM]
CC[C@@H]1OC(=O)C[C@@](O)(C/C=C/C=C(\C)[C@H]2OC(=O)CC/C=C(\C)[C@@H](C)[C@H](O)[C@H](C)[C@@H](OC(N)=O)/C=C\C=C/[C@@H]2C)[C@H]1C | 46
C=C1[C@@H](C)[C@H](O)[C@H](C)[C@@H](OC(N)=O)/C=C\C=C/[C@H](C)[C@@H](/C(C)=C/C=C/C[C@]2(O)CC(=O)O[C@@H](CC)[C@@H]2C)OC(=O)CC[C@H]1OO | 3700
CC[C@@H]1OC(=O)C[C@@H](C/C=C/C=C(\C)[C@H]2OC(=O)CC/C=C(\C)[C@@H](C)[C@H](O)[C@H](C)[C@@H](OC(N)=O)/C=C\C=C/[C@@H]2C)[C@H]1C | 43

— ChEMBL document CHEMBL4033610, “Analogues of the Potent Antitumor Compound Leiodermatolide from a Deep-Water Sponge of the Genus Leiodermatium” (J Nat Prod, 2017)
